Laboratory results as given in patent US20120095062A1, “TRICYCLIC COMPOUNDS, COMPOSITIONS, AND METHODS” (Pfizer Inc., priority 2007, published 2012).
Where two headings read alike, the source gives them in different places.

Key:
[1] = system: IL-6, Human A549 lung epithelial cells; assay: IL-6 inhibition in IL-1β-stimulated A549 cells; format: cell-based; conditions: for inhibition: A549, A549 cells, Prednisolone (1 μM) = 100% inhibition control
Procedure: Human A549 lung epithelial cells (American Type Culture Collection, Rockville, Md.) were cultured in Kaighn's F-12K medium with penicillin-streptomycin (10 U/mL) and 10% heat-inactivated fetal bovine serum (all from Invitrogen, Grand Island, N.Y.). A549 cells were plated at a density of 30,000 cells/well in 96-well plates and incubated overnight at 37° C. and with 5% CO2. The cells were serum-starved by replacing the growth medium with serum-free Kaighn's F-12K medium with penicillin-streptomycin (10 U/mL) and, again, incubating overnight at 37° C. and with 5% CO2. On the third day, the medium was replaced with fresh serum-free medium and the cells were incubated with or without compound (vehicle was DMSO at 0.1% maximum concentration) for approximately 1 hour and then stimulated with 1 ng/mL recombinant human IL-1β (R&D Systems, Minneapolis, Minn.) for 20 hours at 37° C. and with 5% CO2. Cell supernatants were collected for determination of IL-6 levels using MSD (Meso Scale Discovery, Gaithersburg, Md.) 96-well Single Spot plates as per the manufacturer's instructions. Plates were read with an MSD Sector Imager 6000. […] Vehicle was used to define the 0% inhibition control. Percent inhibition for each compound concentration, relative to these controls, was calculated using Excel (Microsoft, Redmond, Wash.). IC50 values were generated using GraFit 5.0 data analysis software (Erithacus Software Ltd., Surrey, UK).

[2] = system: Mouse Collagen-induced arthritis; assay: Therapeutic mouse collagen-induced arthritis (mCIA) model; format: in vivo; conditions: mice, dosing day 34 through day 49, read-out: Therapeutic mCIA (ED50 dose)
Source text: Mouse Collagen-induced arthritis is a commonly used chronic, preclinical model of rheumatoid arthritis in which joint swelling and bone destruction occur following immunization with type II collagen. Reduction of disease incidence and severity has been shown previously to be predictive of disease-modification and signs and symptoms mitigation, respectively, in a clinical setting.
In the therapeutic mCIA model, induction of disease incidence and severity was synchronized via LPS stimulation. Male […] mice were immunized with 100 ug of bovine type II collagen (bCII) on day 0. All mice received an intraperitoneal injection of 20 μg of LPS on day 28 and disease was allowed to develop through day 34. At day 34, all mice had disease (incidence=100%) with an average severity score of seven. Dosing of compounds was initiated in the therapeutic mode on day 34 and continued through day 49. Different treatments were compared by measuring the decrease in incidence (i.e., resolution of disease) and the decrease in severity of paw swelling over time.

[3] = system: LPS-induced serum TNFα; assay: LPS-induced serum TNFα suppression, 28-day repeat dose mouse model; format: in vivo; conditions: 672 h, mice, oral gavage 28 days
[4] = system: Serum osteocalcin; assay: Serum osteocalcin suppression, 28-day repeat dose mouse model; format: in vivo, mice; conditions: for ED50: Mus musculus, 672 h, mice, oral gavage 28 days, serum osteocalcin
[5] = Plasma exposure (AUC) in the mouse; format: in vivo
[6] = system: TNFα, U937 cells; assay: TNFα inhibition in LPS-stimulated differentiated U937 cells; format: cell-based; conditions: Homo sapiens
Procedure: Cells were differentiated to a monocyte/macrophage phenotype with phorbol 12-myristate 13-acetate (Sigma-Aldrich, St. Louis, Mo.), 20 ng/mL, overnight. […] Following recovery, the cells were scraped, counted, and plated in accordance to the experimental design prior to stimulation with LPS, as described below. U937 cells were differentiated and plated at a density of 200,000 cells/well in 96-well plates. […] Louis, Mo.) for four hours at 37° C. and with 5% CO2. Cell supernatants were collected for determination of TNFα levels using an in-house sandwich-type ELISA. Mouse anti-human TNFα monoclonal antibody (clone 28401.111) and biotinylated goat anti-human TNFα (R&D Systems, Minneapolis, Minn.) were used as the capture and detection antibodies, respectively. Streptavidin-horseradish peroxidase (HRP) (R&D Systems, Minneapolis, Minn.) and K-Blue Substrate/Red Stop (Neogen, Lexington, Ky.) were used as the detection system. Absorbance was measured at 650 nm. TNFα concentrations were interpolated from a human TNFα recombinant protein (R&D Systems, Minneapolis, Minn.) standard curve using a four parameter logistics model by Magellan 4.11 data analysis software (Tecan, Durham, N.C.). […] Vehicle was used to define the 0% inhibition control. Percent inhibition for each concentration of compound, relative to these controls, was calculated using Excel (Microsoft, Redmond, Wash.).

[7] = system: Cortical bone formation rate; assay: Cortical bone histomorphometry, bone formation rate (BFR); format: in vivo, mice; conditions: 28-day repeat dose model; the 11th table
Procedure: Sigma-Aldrich, St. […] Calcein incorporates into the bone mineral and allows measurement of bone formation rate. Calcein was dissolved in 2% sodium bicarbonate. During the tissue harvest, the left tibiae were excised and cleaned for cortical histomorphometry measurements. After all skin and muscle were removed, tibiae were placed in 70% ethanol (4° C.) in the dark for a minimum of 24 hours. Ground transverse sections were used for histomorphometric analysis of cortical bone. Bones were sectioned using a low-speed saw (lsomet, Buehler, Lake Bluff, Ill.) equipped with a diamond wafer blade. The end of each tibia was removed proximal to tibia-fibula synostosis and a […] cross-section was cut. Using a roughened glass plate and a cork, sections were ground to […] until transparent and all labels were distinguishable under a fluorescent microscope. […] Sigma-Aldrich, St. Louis, Mo.). Sections were mounted using Eukitt Quick Mounting Medium (#03989, Sigma-Aldrich, St. Louis, Mo.) after which coverslip was applied. […] Bone formation rate was calculated by the following equation: (Inter-label width/Label interval)*(Labeled perimeter/Bone perimeter). At least five samples were measured from each treatment group in each study.

[8] = A549, 20 h, A549 cells, 1 ng/mL IL-1β, 20 hours, read-out: IL-6 IC50

Compound	IC50 [1, 8]	inhibition [1]	ED50 [2]	ED50 [3]	ED50 [4]	AUC(0-4 hr) as share of the AUC(0-24 hr) values [5]	IC50 ([1]; A549, value in brackets, footnote a: additional results that were found, read-out: IL-6 IC50 (nM), additional result)	IC50 ([6]; U-937, 4 h, U937 cells, 100 ng/mL LPS, four hours, read-out: TNFα IC50)	IC50 ([6]; U-937, value in brackets, footnote a: additional results that were found, read-out: TNFα IC50 (nM), additional result)	Serum osteocalcin (OC) EAUC50 ([4]; 28-day repeat dose model, the 11th table)	Cortical bone formation rate (BFR) EAUC50 [7]
Cc1ncccc1NC(=O)c1ccc2c(c1)CC[C@@H]1C[C@@](O)(CCC(F)(F)F)CC[C@@]21Cc1ccccc1 [Comparator C, (4βS,7R,8αR)-4β-benzyl-7-hydroxy-N-(2-methylpyridin-3-yl)-7-(3,3,3-trifluoropropyl)-4β,5,6,7,8,8α,9,10-octahydrophenanthrene-2-carboxamide]	1.1 nM	82.6%	2 mg/kg	0.27 mg/kg	1.01 mg/kg	–	–	–	–	–	–
Cc1ncccc1NC(=O)c1ccc2c(c1)C(=O)C[C@@H]1C[C@@](O)(C(F)(F)F)CC[C@@]21Cc1ccccc1 [Comparator E, (4β,7R,8αS)-4β-benzyl-7-hydroxy-N-(2-methylpyridin-3-yl)-10-oxo-7-(trifluoromethyl)-4β,5,6,7,8,8α,9,10-octahydrophenanthrene-2-carboxamide]	1.1 nM	79.7%	0.5 mg/kg	0.14 mg/kg	0.17 mg/kg	–	–	–	–	–	–
Cc1ncccc1NC(=O)c1ccc2c(c1)[C@H](O)C[C@@H]1C[C@@](O)(C(F)(F)F)CC[C@@]21Cc1ccccc1 [Comparator F, (4βS,7R,8αR,10R)-4β-benzyl-7,10-dihydroxy-N-(2-methylpyridin-3-yl)-7-(trifluoromethyl)-4β,5,6,7,8,8α,9,10-octahydrophenanthrene-2-carboxamide]	7 nM	83.3%	> 10 mg/kg	2.11 mg/kg	1.19 mg/kg	–	–	–	–	–	–
Cc1ncccc1NC(=O)c1ccc2c(c1)C=C[C@@H]1C[C@@](O)(C(F)(F)F)CC[C@@]21Cc1ccccc1 [Comparator I]	2.8 nM	67.5%	17 mg/kg	0.73 mg/kg	5.2 mg/kg	–	–	–	–	–	–
Cc1ncc(NC(=O)c2ccc3c(c2)CC[C@@H]2C[C@@](O)(CCC(F)(F)F)CC[C@@]32Cc2ccccc2)c(C)n1 [Comparator J, (4βS,7S,8αR)-4β-benzyl-N-(2,4-dimethylpyrimidin-5-yl)-7-hydroxy-7-(3,3,3-trifluoropropyl)-4β,5,6,7,8,8α,9,10-octahydrophenanthrene-2-carboxamide]	291 nM	55%	3 mg/kg	0.09 mg/kg	0.73 mg/kg	–	–	–	–	–	–
Cc1ncccc1NC(=O)c1ccc2c(c1)CC[C@@H]1C[C@@](O)(C(F)(F)F)CC[C@@]21Cc1ccccc1 [Example 1, (4βS,7R,8αR)-4β-benzyl-7-hydroxy-N-(2-methylpyridin-3-yl)-7-(trifluoromethyl)-4β,5,6,7,8,8α,9,10-octahydrophenanthrene-2-carboxamide]	–	–	–	–	–	more than 95%	–	–	–	–	–
C[C@]12C=CC(=O)C=C1CC[C@@H]1[C@@H]2[C@@H](O)C[C@@]2(C)[C@H]1CC[C@]2(O)C(=O)CO [Prednisolone]	4.2 nM	102%	1.1 mg/kg	0.9 mg/kg	1 mg/kg	more than 95%	4.6 nM	14.9 nM	15.6 nM	560 ng·h/mL	100 ng·h/mL
